13 compounds from patent publication US9284321B2, “Piperazino[1,2-a]indol-1-ones and [1,4]diazepino[1,2-a]indol-1-one” (Hoffmann-La Roche Inc., priority 2012, dated 2016) can be followed below.

As usually defined, the melting point is the temperature, or range, at which the solid turns liquid.

Data set [1] has as its system human embryonic stem cell derived neural stem cells (NSCs). Nature of the data set: Neural Stem Cell Proliferation Assay (neurogenesis assay, ATP levels by CellTiterGlo). It counts as cell-based. The note with it: 96 h, compound concentration at which 150% activity of control (100%) is reached, NSC proliferation by ATP level after 4 days incubation, dose response 8 μM to 8 nM. Summed up: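 Read-out is CellTiterGlo ATP luminescence after 4-day culture (37 °C, 5% CO2) of dual-SMAD-derived human ESC NSCs, dosed 4 h post-seeding at 8 μM to 8 nM (11 points, 2-fold). EC150 marks the concentration reaching 150% of the media-only control (0.25% DMSO).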
(Cellular ATP, detected with luciferase, serves as a proxy for viable cell number.)

Compound `Cc1c2n(c3c(-c4ccc(Cl)cc4)cc(F)cc13)CCNC2=O` [Example 73, 6-(4-Chloro-phenyl)-8-fluoro-10-methyl-3,4-dihydro-2H-pyrazino[1,2-a]indol-1-one] returned a melting point of 209.5 °C. The EC (150% of control) in data set [1] amounted to 0.017 µM.

The compound `Cc1c2n(c3c(-c4ccc(F)cc4)cc(F)cc13)CCNC2=O` [Example 74, 8-Fluoro-6-(4-fluoro-phenyl)-10-methyl-3,4-dihydro-2H-pyrazino[1,2-a]indol-1-one] displayed a melting point of 182 °C. In data set [1], the EC (150% of control) was 0.072 µM.

Take `COc1ccc(-c2cc(F)cc3c(C)c4n(c23)CCNC4=O)cc1` [Example 75, 8-Fluoro-6-(4-methoxy-phenyl)-10-methyl-3,4-dihydro-2H-pyrazino[1,2-a]indol-1-one]: the melting point is 237 °C. The EC (150% of control) in data set [1] was determined as 0.005 µM.

Take `N#Cc1cc(-c2ccc(F)c(F)c2)c2c(c1)cc1n2CCNC1=O` [Example 76, 6-(3,4-Difluoro-phenyl)-1-oxo-1,2,3,4-tetrahydro-pyrazino[1,2-a]indole-8-carbonitrile]: the melting point came to 289.5 °C. In data set [1], this compound gave an EC (150% of control) of 0.02 µM.

In turn, `N#Cc1cc(-c2ccc(Cl)cc2)c2c(c1)cc1n2CCNC1=O` [Example 77, 6-(4-Chloro-phenyl)-1-oxo-1,2,3,4-tetrahydro-pyrazino[1,2-a]indole-8-carbonitrile] came in with a melting point of 316.5 °C. This compound registered an EC (150% of control) in data set [1] of 0.02 µM.

`N#Cc1cc(-c2ccc(F)cc2)c2c(c1)cc1n2CCNC1=O` [Example 78, 6-(4-Fluoro-phenyl)-1-oxo-1,2,3,4-tetrahydro-pyrazino[1,2-a]indole-8-carbonitrile] displayed a melting point of 297.5 °C. In data set [1], this compound returned an EC (150% of control) of 0.012 µM.

In the case of `COc1ccc(-c2cc(C#N)cc3cc4n(c23)CCNC4=O)cc1` [Example 79, 6-(4-Methoxy-phenyl)-1-oxo-1,2,3,4-tetrahydro-pyrazino[1,2-a]indole-8-carbonitrile], the melting point is 278.5 °C. This compound also registered an EC (150% of control) in data set [1] of 0.004 µM.

In the case of `Cc1c2n(c3c(-c4ccccc4)cc(F)cc13)CCNC2=O` [Example 80, 8-Fluoro-10-methyl-6-phenyl-3,4-dihydro-2H-pyrazino[1,2-a]indol-1-one], the melting point was found to be 244 °C. The same compound came in with an EC (150% of control) in data set [1] of 0.098 µM.

For the compound `Cc1ccc(-c2cc(F)cc3c(C)c4n(c23)CCNC4=O)cc1` [Example 81, 8-Fluoro-10-methyl-6-p-tolyl-3,4-dihydro-2H-pyrazino[1,2-a]indol-1-one], the melting point turned out to be 226 °C. This compound had an EC (150% of control) in data set [1] of 0.014 µM.

With `Cc1c2n(c3c(-c4ccc(C(F)(F)F)cc4)cc(F)cc13)CCNC2=O` [Example 82, 8-Fluoro-10-methyl-6-(4-trifluoromethyl-phenyl)-3,4-dihydro-2H-pyrazino[1,2-a]indol-1-one], the melting point was 269.5 °C. In data set [1], this compound gave an EC (150% of control) of 0.036 µM.

On to `Cc1c2n(c3c(-c4ccncc4)cc(F)cc13)CCNC2=O` [Example 83, 8-Fluoro-10-methyl-6-pyridin-4-yl-3,4-dihydro-2H-pyrazino[1,2-a]indol-1-one], for which the melting point was found to be 290 °C. Moreover, in data set [1], the EC (150% of control) is 0.039 µM.

As to `Cc1c2n(c3c(-c4cc(F)cc(F)c4)cc(F)cc13)CCNC2=O` [Example 84, 6-(3,5-Difluoro-phenyl)-8-fluoro-10-methyl-3,4-dihydro-2H-pyrazino[1,2-a]indol-1-one], the melting point came to 250 °C. The compound further displayed an EC (150% of control) in data set [1] of 0.15 µM.

Regarding `Cc1c2n(c3c(-c4ccc(Cl)c(F)c4)cc(F)cc13)CCNC2=O` [Example 85, 6-(4-Chloro-3-fluoro-phenyl)-8-fluoro-10-methyl-3,4-dihydro-2H-pyrazino[1,2-a]indol-1-one], the melting point worked out at 216 °C. The same compound registered an EC (150% of control) in data set [1] of 0.04 µM.
